Assay results as given in patent EP0423240B1, “MODULATION OF VIRUS-HOST CELL INTERACTIONS USING CYCLIC OLIGOSACCHARIDES” (THE TRUSTEES OF THE UNIVERSITY OF PENNSYLVANIA, priority 1988, dated 1990).

Tests used:
HTLV III -B (HIV-1 IIIB) = experiment: Fusion inhibition (syncytia) assay, Sup-T1 cells with HTLV-III B infected H9 cells; format: cell-based; parameters: key: 4=Full; 0=None; S=Small; M=Medium; L=Large; details: degree and size of syncytia
Procedure: (§1) The fusion inhibition (syncytia) assay was performed according to published procedures (Dalgleish et al., Nature 312:763, (1984) and Sodroski et al., Nature 322: 470, (1986)). Sup-T1 cells are favored target cells for their rapid degree of cell fusion when co-cultured with HIV-1 producing cell lines. Cell culture is performed according to the method of Dalgleish et al. (Nature 312:763, (1984)). Sup-T1 cells are plated in 96 well plates (10⁵ cells/well in RPMI 1640 + 10% FCS) and incubated with or without dilutions of beta-cyclodextrin tetradecasulfate (β-CD-TDS or β-CD-14S) at 37°C. HTLV-III B (HIV-1) or WMJ infected H9 cells are then added 5x10⁴/well and the number of multinucleated giant cells per 16 X field counted with a Zeiss inverted field phase contrast microscope after 18 hours. Syncytia are easily identified and inhibition of syncytia by different dilutions of β-CD-TDS can be compared with to β-CD-TDS free preparations. It will be apparent to those skilled in the art, that the formation of syncytia between cells susceptible of infection by HIV-1 and cells expressing HIV-1 envelope glycoproteins represents the same molecular phenomena involved in infection by HIV-1, but is far less hazardous and may be employed to study the mechanisms of infection and the effects of modulating factors on HIB-1 intracellular infection mechanisms, without fear of exposure to the virus itself.
(§2) For screening of different dilutions, 10-fold dilutions of a 150 micromolar solution of β-CD-TDS were prepared and directly added to syncytia assays as described above.
(§3) For the assay of HIV-1 fusion, Supt T1 cells were used as target cells. They fuse rapidly when cocultured with HIV-1 (H9/IIIb) producing cell lines. For the assay of HIV-2 mediated cell fusion, H9 cells were used as target cells. They fuse rapidly when cocultured with HIV-2 (CEMROD-2) producing cell lines. HIV infected cells were plated in 96 well plates (10⁴ cells/well in RPMI 1640 + 10% FCS) and incubated with or without dilution of compounds for 30 minutes at 37°C. Target cells are then added 5 x 10⁵/well and the number of syncytia are qualitatively determined after the incubation periods described in the text.
(§4) In a series of preliminary experiments, a syncytia assay induced by HIV-1 fusion of Sup-T1 cells was performed as described in Section 6.1.1, supra.

HTLV III WMJ = experiment: Fusion inhibition (syncytia) assay, Sup-T1 cells with WMJ infected H9 cells; format: cell-based, HIV-1; parameters: key to Degree of Syncytia Formation: 4=Full; 0=None; S=Small; M=Medium; L=Large; details: for Degree of Syncytia Formation: degree and size of syncytia
Procedure: as §1, §2, §3, §4

HIV-2 = HIV-2 induced syncytia assay, ROD-2 infected cells cocultured with H9 target cells; format: cell-based; parameters: key to number of syncytia formed: 4 being multiple syncytia widely distributed; 0 indicating no syncytia observed; s=small; m=medium; L=large syncytia; details: for number of syncytia formed: HIV-2, number and size of syncytia
Procedure: as §3, with “text. […]” for “text.”

HIV-1 = experiment: Reverse transcriptase levels of cells already infected with HIV-1; format: cell-based; details: reverse transcriptase activity, virus particle production, virus particle morphology
Procedure: Virus infected cells were pelleted by centrifugation and 50 µl of culture suprenatant was collected from each well for assay. Culture supernatant (25 µl) was plated in 96 well round bottomed plates and 50 µl of transcriptase cocktail was added to each well. Cocktail is 50 mM Tris-HC1, pH 8.0, 20 mM DTT, 0.6 mM MnC1₂, 60 mM NaC1, 0.05% NP-40, 5 µg/ml dt (oligodeoxythymidilic acid), 10 µg/ml poly A (polyriboadenylic acid), 10 µM dTTP, 1 Ci/mm ³²P dTTP. Plates were then incubated for 60 minutes at 37°C. After incubation samples were spotted onto Whatman DEAE-81 paper, washed and analyzed by counting or direct autoradiography.
In order to determine the specific sites of viral pathogenesis interrupted by the cyclodextrin compounds, we assayed the ability of the cyclodextrins treatment to effect reverse transcriptase levels of cells already infected with HIV-1. In contrast to the results observed when virus was added to uninfected cells, (see supra, Section 6.2.1.) no significant inhibition of reverse transcriptase was observed.

HIV = experiment: Reverse transcriptase assay after prolonged culture (6 days with compound, further 10 days in fresh media); format: cell-based; details: then 10 days in fresh media
Procedure: Figure 6 compares the effects of dextran polysulfate and substituted β-cyclodextrins on HIV infectivity. In (A) degree of syncytia inhibition is shown on the ordinate for each compound added. SUL = 600 µM β-CD-14S, AL = 600 µM unsubstituted β-CD, Pro = 600 µM propoxylated β-CD, 2MET = 300 µM methoxylated β-CD, DS5 = 600 µM dextran sulfate 5,000, DS500 = 600 µM dextran sulfate 500,000. Results for each of 3 time points are shown. In (B) similar results utilizing reverse transcriptase assays are shown. Infectious virus particles were incubated in the presence of sulfated β-cyclodextrin (lane 1), dextran sulfate 5000 (lane 2) or media (lane 3) for 6 days at which time cells were resuspended in fresh media and allowed to incubate a further 10 days before being harvested. Reverse transcriptase activity was assayed as described in Section 6.1, infra. 1/2 dilutions of the compound added are shown from bottom (highest concentration at 2.5 mM) to top (lowest concentration).
Virus infected cells were pelleted by centrifugation and 50 µl of culture suprenatant was collected from each well for assay. Culture supernatant (25 µl) was plated in 96 well round bottomed plates and 50 µl of transcriptase cocktail was added to each well. […] After incubation samples were spotted onto Whatman DEAE-81 paper, washed and analyzed by counting or direct autoradiography. […]

beta-cyclodextrin tetradecasulfate [Beta-CD-14S]
Degree of Syncytia Formation (HTLV III -B (HIV-1 IIIB); 0.15 micromolar β-CD-TDS): 4 L
Degree of Syncytia Formation (HTLV III -B (HIV-1 IIIB); 1.50 micromolar β-CD-TDS): 4 L
Degree of Syncytia Formation (HTLV III -B (HIV-1 IIIB); 15.0 micromolar β-CD-TDS): 4 L
Degree of Syncytia Formation (HTLV III -B (HIV-1 IIIB); 150 micromolar β-CD-TDS): 2 M
Degree of Syncytia Formation (HTLV III -B (HIV-1 IIIB); 1500 micromolar β-CD-TDS): 0
Degree of Syncytia Formation (HTLV III WMJ; 0.15 micromolar β-CD-TDS): 4 L
inhibition of syncytia formation (HTLV III WMJ; 0.15 micromolar, text summary of Table 1 (both strains)): no inhibition of syncytia formation was observed
Degree of Syncytia Formation (HTLV III WMJ; 1.50 micromolar β-CD-TDS): 3 M
Degree of Syncytia Formation (HTLV III WMJ; 15.0 micromolar β-CD-TDS): 1S
Degree of Syncytia Formation (HTLV III WMJ; 150 micromolar β-CD-TDS): 0
Degree of Syncytia Formation (HTLV III WMJ; 1500 micromolar β-CD-TDS): 0
inhibition of syncytia (HTLV III WMJ; between 1.5 micromolar and 1500 micromolar, text summary of Table 1 (both strains)): inhibition of syncytia was observed
number of syncytia formed (HIV-2; 1.3 mM): 0
number of syncytia formed (HIV-2; 2.5 mM): 0
number of syncytia formed (HIV-2; .01 mM): 4 L
number of syncytia formed (HIV-2; .02 mM): 4 L
number of syncytia formed (HIV-2; .04 mM): 4 L
number of syncytia formed (HIV-2; .08 mM): 3 L
number of syncytia formed (HIV-2; .16 mM): 2m
number of syncytia formed (HIV-2; .32 mM): 1 s
number of syncytia formed (HIV-2; .63 mM): 0
inhibition of syncytia formation mediated by ROD-2 (HIV-2; result in words): inhibited syncytia formation
effects on cells that have already been infected with HIV-1 (HIV-1): no detectable effects
anti-viral activity (reverse transcriptase activity) (HIV): significant anti-viral activity even after prolonged periods of tissue culture
